# Data taken from ChEMBL document CHEMBL1201862, “PubChem BioAssay data set” (2004).
#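 Growth conditions: 96-well plates. Treatment: test compound, 48 hours, 5 concentrations. Analysis: linear interpolation between bracketing concentrations; unreached endpoints set to highest concentration. Abbreviation: GI50, concentration required for 50% inhibition of growth.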 Active and inactive are the calls of the source. No stated cut-off is given here; in the data, active = GI50 up to about 1.1 µM and inactive = higher.
# How the values were obtained:
# Assay in all cases: NCI anticancer screen, dose series, 48 h
# [1] = system: IGROV-1
# [2] = system: SF-268
# [3] = system: OVCAR-8
# [4] = system: EKVX
# [5] = system: NCI-H23
# [6] = system: RPMI-8226
# [7] = system: HT-29
# [8] = system: HOP-62
# [9] = system: SK-MEL-28
# [10] = system: M14
# [11] = system: SW-620
# [12] = system: HCT-116
# [13] = system: SK-MEL-2
# [14] = system: MDA-MB-435
# [15] = system: MDA-N
# [16] = system: KM12
# [17] = system: ACHN
# [18] = system: HL-60
# [19] = system: MDA-MB-231
# [20] = system: T47D
SMILES,GI50 [1],GI50 [2],GI50 [3],GI50 [4],GI50 [5],GI50 [6],GI50 [7],GI50 [8],GI50 [9],GI50 [10],GI50 [11],GI50 [12],GI50 [13],GI50 [14],GI50 [15],GI50 [16],GI50 [17],GI50 [18],GI50 [19],GI50 [20]
C=CC(C)(C)n1cc(C2=C3OC(=O)C(c4cn(C(C)(C)C=C)c5ccccc45)=C3OC2=O)c2ccccc21,> 100 µM (inactive),> 100 µM (inactive),> 100 µM (inactive),> 100 µM (inactive),> 100 µM (inactive),> 100 µM (inactive),> 100 µM (inactive),> 100 µM (inactive),> 100 µM (inactive),> 100 µM (inactive),> 100 µM (inactive),> 100 µM (inactive),> 100 µM (inactive),> 100 µM (inactive),> 100 µM (inactive),> 100 µM (inactive),> 100 µM (inactive),> 100 µM (inactive),> 100 µM (inactive),–
COC(=O)C(CC(=O)Nc1ccc(C)cc1)C(=O)C(=O)Nc1ccccc1C(C)C (centres undefined),> 100 µM (inactive),> 100 µM (inactive),> 100 µM (inactive),> 100 µM (inactive),> 100 µM (inactive),62.4 µM (inactive),> 100 µM (inactive),> 100 µM (inactive),> 100 µM (inactive),> 100 µM (inactive),22.2 µM (inactive),> 100 µM (inactive),> 100 µM (inactive),–,–,> 100 µM (inactive),> 100 µM (inactive),> 100 µM (inactive),–,–
COc1ccc(NC(=O)C(=O)C2NC(=S)NC2=O)c(OC)c1 (centres undefined),> 100 µM (inactive),> 100 µM (inactive),> 100 µM (inactive),> 100 µM (inactive),> 100 µM (inactive),> 100 µM (inactive),> 100 µM (inactive),> 100 µM (inactive),> 100 µM (inactive),> 100 µM (inactive),> 100 µM (inactive),> 100 µM (inactive),> 100 µM (inactive),–,–,> 100 µM (inactive),> 100 µM (inactive),> 100 µM (inactive),–,–
NC(=S)NNC(=O)/C(=C/c1ccc(/C=C(\NC(=O)c2ccccc2)C(=O)NNC(N)=S)cc1)NC(=O)c1ccccc1,> 79.3 µM (inactive),> 100 µM (inactive),64 µM (inactive),> 100 µM (inactive),> 100 µM (inactive),32.1 µM (inactive),> 100 µM (inactive),> 100 µM (inactive),> 100 µM (inactive),> 100 µM (inactive),> 81.8 µM (inactive),75 µM (inactive),> 100 µM (inactive),–,–,> 100 µM (inactive),> 100 µM (inactive),15.6 µM (inactive),–,–
CCCCCCCCCCNC(=S)OCCCC,28.1 µM (inactive),22.8 µM (inactive),33.3 µM (inactive),25.8 µM (inactive),23.1 µM (inactive),17.1 µM (inactive),19.5 µM (inactive),27.2 µM (inactive),25.8 µM (inactive),23.6 µM (inactive),19.2 µM (inactive),18.3 µM (inactive),12.8 µM (inactive),–,–,14.7 µM (inactive),28.1 µM (inactive),14.3 µM (inactive),–,–
CCOC(=O)c1ccc(-c2ccc(Cl)cc2)[nH]1,> 10 µM (inactive),> 10 µM (inactive),> 10 µM (inactive),2.28 µM (inactive),> 10 µM (inactive),–,> 10 µM (inactive),–,–,> 10 µM (inactive),–,> 10 µM (inactive),> 10 µM (inactive),> 10 µM (inactive),5.45 µM (inactive),> 10 µM (inactive),> 10 µM (inactive),> 10 µM (inactive),–,–
COc1cc(Br)c(CC2=NCCc3cc(OC)c(OC)cc32)cc1OC,12.2 µM (inactive),51.2 µM (inactive),48.1 µM (inactive),35.7 µM (inactive),9.71 µM (inactive),18.3 µM (inactive),2.16 µM (inactive),> 100 µM (inactive),19.7 µM (inactive),12.9 µM (inactive),18 µM (inactive),3.16 µM (inactive),53.1 µM (inactive),–,–,20.9 µM (inactive),14.8 µM (inactive),2.33 µM (inactive),–,–
CN(C)C(=S)/N=c1\ss/c(=N/c2ccccc2)n1C,> 100 µM (inactive),27.2 µM (inactive),73.6 µM (inactive),> 100 µM (inactive),> 100 µM (inactive),> 100 µM (inactive),> 100 µM (inactive),48.1 µM (inactive),64.3 µM (inactive),> 100 µM (inactive),> 100 µM (inactive),38.5 µM (inactive),> 100 µM (inactive),–,–,> 100 µM (inactive),> 100 µM (inactive),> 100 µM (inactive),–,–
CSC1=N[C@H](c2ccccc2)CS1,> 100 µM (inactive),–,–,> 100 µM (inactive),> 100 µM (inactive),> 100 µM (inactive),> 100 µM (inactive),> 100 µM (inactive),> 100 µM (inactive),> 100 µM (inactive),> 100 µM (inactive),> 100 µM (inactive),> 100 µM (inactive),> 100 µM (inactive),> 100 µM (inactive),> 100 µM (inactive),> 100 µM (inactive),–,–,> 100 µM (inactive)
COC(=O)C1(C(=O)OC)N=C(C)OC1C(C)C (centres undefined),–,–,> 100 µM (inactive),> 100 µM (inactive),> 100 µM (inactive),> 100 µM (inactive),–,> 100 µM (inactive),> 100 µM (inactive),> 100 µM (inactive),> 100 µM (inactive),> 100 µM (inactive),> 100 µM (inactive),> 100 µM (inactive),> 100 µM (inactive),> 100 µM (inactive),> 100 µM (inactive),37.5 µM (inactive),–,> 100 µM (inactive)
Cc1ccccc1S(=O)(=O)Nn1cnc2ccc(S(=O)(=O)Nc3ccc(Cl)cc3)cc2c1=O,7.59 µM (inactive),> 100 µM (inactive),> 100 µM (inactive),35.2 µM (inactive),60.4 µM (inactive),51.8 µM (inactive),> 100 µM (inactive),> 100 µM (inactive),> 100 µM (inactive),65.9 µM (inactive),> 100 µM (inactive),> 100 µM (inactive),16.6 µM (inactive),82.8 µM (inactive),53.1 µM (inactive),12.4 µM (inactive),> 100 µM (inactive),> 100 µM (inactive),> 100 µM (inactive),–
C=CCNC1=C2C[C@@H](C)C[C@@H](OC)[C@H](OC(=O)CN)[C@H](C)/C=C(\C)[C@@H](OC(N)=O)[C@H](OC)/C=C\C=C(/C)C(=O)NC(=CC1=O)C2=O,0.927 µM (active),5.73 µM (inactive),0.904 µM (active),5.77 µM (inactive),0.48 µM (active),3.59 µM (inactive),0.0406 µM (active),0.521 µM (active),2.05 µM (inactive),0.371 µM (active),0.183 µM (active),0.575 µM (active),0.453 µM (active),0.418 µM (active),0.223 µM (active),0.27 µM (active),5.13 µM (inactive),1.69 µM (inactive),3.71 µM (inactive),–
CC1=Nc2c(ccc3c2C(=O)c2ccccc2C3=O)NC(c2cccc3c2CCC3)C1 (centres undefined),10.3 µM (inactive),> 100 µM (inactive),> 100 µM (inactive),> 100 µM (inactive),> 100 µM (inactive),> 100 µM (inactive),> 100 µM (inactive),> 73.8 µM (inactive),> 100 µM (inactive),> 92 µM (inactive),> 100 µM (inactive),66.2 µM (inactive),> 80.9 µM (inactive),–,–,> 31.9 µM (inactive),25.3 µM (inactive),1.58 µM (inactive),–,–
Cc1ccc(C(=O)Nc2ccc(S(=O)(=O)O)c3cc(S(=O)(=O)O)cc(S(=O)(=O)O)c23)cc1NC(=O)c1cccc(N)c1,> 100 µM (inactive),> 100 µM (inactive),> 100 µM (inactive),> 100 µM (inactive),> 100 µM (inactive),–,> 100 µM (inactive),> 100 µM (inactive),> 100 µM (inactive),> 100 µM (inactive),> 100 µM (inactive),–,73.8 µM (inactive),–,–,> 100 µM (inactive),> 100 µM (inactive),> 100 µM (inactive),> 100 µM (inactive),> 100 µM (inactive)
C=CCOc1cc2c(cc1C(C)c1ccc(OC)cc1)OCO2 (centres undefined),–,4.88 µM (inactive),0.624 µM (active),–,0.807 µM (active),0.78 µM (active),0.286 µM (active),0.495 µM (active),> 100 µM (inactive),0.67 µM (active),0.375 µM (active),0.525 µM (active),16.6 µM (inactive),0.251 µM (active),0.337 µM (active),0.372 µM (active),0.612 µM (active),0.196 µM (active),11.5 µM (inactive),–
C[C@]12C=CC(=O)C=C1CC[C@H]1[C@@H]3C[C@@H](O)[C@](O)(C(=O)CO)[C@@]3(C)C[C@H](O)[C@@]12F [TRIAMCINOLONE],> 100 µM (inactive),> 100 µM (inactive),> 100 µM (inactive),> 100 µM (inactive),> 100 µM (inactive),11 µM (inactive),> 100 µM (inactive),> 100 µM (inactive),> 100 µM (inactive),> 100 µM (inactive),> 100 µM (inactive),> 100 µM (inactive),> 100 µM (inactive),–,–,> 100 µM (inactive),> 100 µM (inactive),> 100 µM (inactive),–,–
